# Data taken from patent US11008325B2, “Inhibitors of cancer invasion, attachment, and/or metastasis” (VIRGINIA COMMONWEALTH UNIVERSITY, priority 2016, dated 2021).
# Experiments:
# GBM6 cells = assay: orthotopic GBM6 xenograft model; assay type: in vivo, mice
# Experimental: FIGS. 13A-13E. Effect of PDZ1i on survival in an in vivo model of glioma. GBM6 cells were pretreated for 2 hrs prior to intracranial injection with vehicle (DMSO) or PDZ1i and after 7 days, brain tissue was isolated and sectioned at injection site. FIG. 13A, brain tissue at site of injection of DMSO treated cells; FIG. 13B, brain tissue are site of injection of PDZ1i treated cells. 7 days after tumor implantation, mice received either vehicle or PDZ1i (30 mg/kg) three times per week for 3 weeks. Brain tissue was isolated and analyzed via H&E stain, FIG. 13C, brain tissue from mice treated with vehicle; FIG. 13D, brain tissue from mice treated with PDZ1i. FIG. 13E, Kaplan-Myer curves of these groups based on animal survival. **p<0.01.
# PDZ1i is effective in reducing tumor invasion in an animal model of GBM. To test the efficacy of PDZ1i, we used an orthotopic xenograft model with GBM6 cells that were pretreated with either DMSO or PDZ1i and injected intracranially to form tumors. Seven d post injection tumor and brain tissue were isolated for sectioning. […] Separately, untreated cells were injected and tumors established, then mice were treated IP with either DMSO or PDZ1i (30 mg/kg) three times per wk for two wk. […]
# U87-EGFRvIII cells = assay: immunoblot of EGFRvIII/FAK/NF-kB signaling with radiation; assay type: cell-based, human
# Experimental: FIGS. 9A-9C. PDZ1i treatment impairs EGFRvIII and FAK signaling, as well as EGFRvIII-MDA-9 interaction. FIG. 9A. Immunoblot analysis showing expression of mutated EGFR in U87 or U87EGFRvIII cells. FIG. 9B. Cells were treated with either DMSO or PDZ1i 2 hrs prior to radiation. These cells were subsequently seeded on fibronectin-coated plates and cell lysates were collected after 1 hr and analyzed for protein expression. FIG. 9C. Lysates from cells treated with and without radiation or PDZ1i as indicated were analyzed via immunoprecipitation. Anti-MDA-9, top, and anti-EGFR, bottom, were used to pull down associated complexes, and western blotting was performed with the indicated antibodies. Left lanes include IgG and control input samples.
# PDZ1i inhibits EGFRvIII-driven signaling in GBM and reduces MMP secretion. EGFR amplification and mutation is both a common and important alteration in GBM. A particular mutation of this receptor, EGFRvIII, is often co-expressed along with EGFR amplification in GBM. […] U87 cells stably expressing EGFRvIII, U87-EGFRvIII (FIG. 9), were treated with PDZ1i prior to radiation. […]
# Preparation of whole-cell lysates and Western blotting analysis was performed as described (5). For densitometry evaluation, X-ray films were scanned and analyzed with ImageJ software (NIH).
# IGF-1R and STAT3 = assay: western blot after hIGFBP-2 stimulation; assay type: cell-based; details: dose- and time-dependent
# Experimental: FIGS. 17A-17H. Effect of PDZ1i on invasion, MDA-9/IGF-R1 interaction and IGF-R1, STAT3 and SRC phosphorylation. FIG. 17A) Different cancer cells (25,000 cells/well) from various anatomic origins were pre-treated with either DMSO (vehicle) or PDZ1i (dose as indicated) and invasion ability was assayed using modified Boyden Chamber according to the manufacturer's instructions. Photomicrographs were taken at 10× magnification and quantification of the results of three independent experiments is provided in the graphs. The data presents mean±S.D. B) The designated cells were treated with DMSO or PDZ1i and invasion properties were determined using a modified Boyden Chamber assay (BD bioscience). RWPE-1 mda-9: mda-9 transiently overexpressing cell line. […] FIG. 17E) Cells were growth starved for 24 h and treated with either DMSO or PDZ1i (dose indicated in μM) for 6 h. Cells were treated with human recombinant IGFBP-2 (hIGFBP-2, 10 ng/ml) for 2 h, lysates were prepared and western blot analysis was conducted with specific antibodies. FIG. 17F) Cells were serum-starved for 24 h and treated with either DMSO or PDZ1i (20 μM) for 6 h. […] Cells were treated with human recombinant […] (hIGFBP-2, 1 ng/ml) for 2 h, cell lysates were prepared and analyzed by western blotting. […]
structure (smiles),measurement,setting,value
"Cc1cc(NC(=O)c2nc3[nH]c4c(c(=O)n3n2)CCC4)c(C)cc1NC(=O)CCc1nnc(-c2ccccc2)o1 [113B7, N-(2,5-dimethyl-4-(3-(5-phenyl-1,3,4-oxadiazol-2-yl)propanamido)phenyl)-8-oxo-5,6,7,8-tetrahydro-4H-cyclopenta[d][1,2,4]triazolo[1,5-a]pyrimidine-2-carboxamide]",survival,GBM6 cells; PDZ1i 30 mg/kg IP three times per wk,significantly increased
same,tumor size and demarcation,"GBM6 cells; cells pretreated with PDZ1i, 7 d post intracranial injection",noticeably smaller and more demarcated neoplasms
same,FAK activation after radiation,U87-EGFRvIII cells; PDZ1i prior to radiation,nullified
same,phospho-EGFR,U87-EGFRvIII cells; radiated and non-radiated cells,significantly reduced
same,IGF-1R and STAT3 activity,IGF-1R and STAT3,down regulates
